Data: ChEMBL document CHEMBL5036353, “Discovery of Pyrazolo[3,4-d]pyridazinone Derivatives as Selective DDR1 Inhibitors via Deep Learning Based Design, Synthesis, and Biological Evaluation” (J Med Chem, 2022)
Active and inactive are the calls of the source. The calls are words filed in the database; no cut-off is given here.

Assays:
Mus musculus [1] = test: Anti-colitis activity against DSS-induced IBD C57BL/6 mouse model assessed as improvement in DSS induced weight loss at 5 to 10 mg/kg, po administered daily and measured after 5 to 8 days; assay type: functional, organism-based; conditions: dose 5-10 mg/kg, time 5-8 day
[2] = molecular target: NT-3 growth factor receptor (Homo sapiens) (UniProt Q16288); test: Inhibition of recombinant human TRKC (510 to end residues) assessed as residual activity at 10 uM using GEEPLYWSFPAKKK as substrate incubated for 40 mins in presence of [gamma33P]ATP by scintillation counting based radiometry assay relative to control
Mus musculus [3] = test: Anti-colitis activity against DSS-induced IBD C57BL/6 mouse model assessed as reduction in crypt loss in colon at 5 to 10 mg/kg, po administered daily measured after 9 days by HE staining based analysis; assay type: functional, organism-based; conditions: dose 5-10 mg/kg, time 9.0 day
THP-1 [4] = test: Antiinflammatory activity against human THP-1 derived macrophage assessed as inhibition of LPS-induced IL-1beta expression at 10 uM by ELISA; assay type: functional, cell-based
Macrophage [5] = test: Antiinflammatory activity against mouse primary bone marrow derived macrophages assessed as inhibition of LPS-induced TNF expression at 10 uM by ELISA; assay type: functional, tissue-based
Mus musculus [6] = test: Anti-colitis activity against DSS-induced IBD C57BL/6 mouse model assessed as reduction in IL-6 transcription level in colon at 5 to 10 mg/kg, po administered daily by RT-qPCR analysis; assay type: functional, organism-based; conditions: dose 5-10 mg/kg
Mus musculus [7] = test: Anti-colitis activity against DSS-induced IBD C57BL/6 mouse model assessed as reduction in serum IL-6 expression at 5 to 10 mg/kg, po administered daily by ELISA; assay type: functional, organism-based; conditions: dose 5-10 mg/kg
Macrophage [8] = test: Antiinflammatory activity against mouse primary bone marrow derived macrophages assessed as inhibition of LPS-induced IL-6 expression by ELISA; assay type: functional, tissue-based; conditions: dose 10.0 µM
Mus musculus [9] = test: Anti-colitis activity against DSS-induced IBD C57BL/6 mouse model assessed as reduction in serum IL-1beta expression at 5 to 10 mg/kg, po administered daily by ELISA; assay type: functional, organism-based; conditions: dose 5-10 mg/kg
THP-1 [10] = test: Antiinflammatory activity against human THP-1 derived macrophage assessed as inhibition of LPS-induced TNF expression at 10 uM by ELISA; assay type: functional, cell-based
Mus musculus [11] = test: Anti-colitis activity against DSS-induced IBD C57BL/6 mouse model assessed as reduction in fecal occult blood score at 5 to 10 mg/kg, po administered daily and measured after 9 days; assay type: functional, organism-based; conditions: dose 5-10 mg/kg, time 9.0 day
THP-1 [12] = test: Antiinflammatory activity against human THP-1 derived macrophages assessed as inhibition of LPS-induced IL6 expression by ELISA; assay type: functional, cell-based; conditions: dose 10.0 µM
Macrophage [13] = test: Antiinflammatory activity against mouse primary bone marrow derived macrophages assessed as inhibition of LPS-induced IL-1beta expression at 10 uM by ELISA; assay type: functional, tissue-based
Mus musculus [14] = test: Anti-colitis activity against DSS-induced IBD C57BL/6 mouse model assessed as reduction in inflammatory cell infiltration in colon at 5 to 10 mg/kg, po administered daily measured after 9 days by HE staining based analysis; assay type: functional, organism-based; conditions: dose 5-10 mg/kg, time 9.0 day
Mus musculus [15] = test: Anti-colitis activity against DSS-induced IBD C57BL/6 mouse model assessed as reduction in severe epithelial destruction in colon at 5 to 10 mg/kg, po administered daily measured after 9 days by HE staining based analysis; assay type: functional, organism-based; conditions: dose 5-10 mg/kg, time 9.0 day
Mus musculus [16] = test: Anti-colitis activity against DSS-induced IBD C57BL/6 mouse model assessed as reduction in IL-1beta transcription level in colon at 5 to 10 mg/kg, po administered daily by RT-qPCR analysis; assay type: functional, organism-based; conditions: dose 5-10 mg/kg
Mus musculus [17] = test: Anti-colitis activity against DSS-induced IBD C57BL/6 mouse model assessed as reduction in serum TNF expression at 5 to 10 mg/kg, po administered daily by ELISA; assay type: functional, organism-based; conditions: dose 5-10 mg/kg
Mus musculus [18] = test: Anti-colitis activity against DSS-induced IBD C57BL/6 mouse model assessed as reduction in TNF transcription level in colon at 5 to 10 mg/kg, po administered daily by RT-qPCR analysis; assay type: functional, organism-based; conditions: dose 5-10 mg/kg
Mus musculus [19] = test: Anti-colitis activity against DSS-induced IBD C57BL/6 mouse model assessed as improvement in DSS reduced colon length at 5 to 10 mg/kg, po administered daily and measured after 9 days; assay type: functional, organism-based; conditions: dose 5-10 mg/kg, time 9.0 day

NT-3 growth factor receptor (Homo sapiens), sequence (Q16288 32-839 limits assumed): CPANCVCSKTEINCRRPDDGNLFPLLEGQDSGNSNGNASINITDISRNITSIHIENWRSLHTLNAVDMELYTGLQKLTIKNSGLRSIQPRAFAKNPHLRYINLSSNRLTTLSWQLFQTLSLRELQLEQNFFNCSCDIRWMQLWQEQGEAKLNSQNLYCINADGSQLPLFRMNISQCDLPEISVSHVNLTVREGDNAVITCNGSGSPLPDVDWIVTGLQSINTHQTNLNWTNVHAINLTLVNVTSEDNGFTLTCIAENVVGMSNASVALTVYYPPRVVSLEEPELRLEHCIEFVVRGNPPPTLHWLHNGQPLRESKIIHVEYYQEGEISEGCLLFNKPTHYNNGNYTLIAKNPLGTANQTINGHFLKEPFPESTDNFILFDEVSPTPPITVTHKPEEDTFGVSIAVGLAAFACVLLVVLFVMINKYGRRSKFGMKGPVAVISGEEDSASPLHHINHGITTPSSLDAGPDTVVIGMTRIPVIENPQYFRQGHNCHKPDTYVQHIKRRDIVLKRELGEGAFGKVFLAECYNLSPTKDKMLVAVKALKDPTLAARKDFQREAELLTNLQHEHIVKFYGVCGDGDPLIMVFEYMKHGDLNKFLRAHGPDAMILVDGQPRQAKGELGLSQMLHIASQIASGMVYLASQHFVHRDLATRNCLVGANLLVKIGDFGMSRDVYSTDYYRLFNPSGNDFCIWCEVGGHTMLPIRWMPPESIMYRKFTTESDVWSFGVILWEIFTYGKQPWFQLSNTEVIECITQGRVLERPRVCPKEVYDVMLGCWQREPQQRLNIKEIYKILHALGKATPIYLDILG

Activity [2]: 45%
SMILES: CC(=O)Nc1ccc(-n2nc3c(=O)[nH]nc(N)c3c2-c2oc3cc(C(=O)Nc4cccc(C(F)(F)F)c4)ccc3c2C)cc1
Activity (Mus musculus [1]): Active | Activity (Mus musculus [3]): Active | Activity (THP-1 [4]): Active | Activity (Macrophage [5]): Active | Activity (Mus musculus [6]): Active | Activity (Mus musculus [7]): Active | Activity (Macrophage [8]): Dose-Dependent Effect | Activity (Mus musculus [9]): Active | Activity (THP-1 [10]): Active | Activity (Mus musculus [11]): Active | Activity (THP-1 [12]): Dose-Dependent Effect | Activity (Macrophage [13]): Active | Activity (Mus musculus [14]): Active | Activity (Mus musculus [15]): Active | Activity (Mus musculus [16]): Active | Activity (Mus musculus [17]): Active | Activity (Mus musculus [18]): Active | Activity (Mus musculus [19]): Active
